Earlier results as cited in patent US10449245B2 (priority 2014, dated 2019).

Test system: HIV-specific T cells
Settings: IMiD present during stimulation with dendritic cells presenting Gag- or Nef-specific peptides; cited from earlier work

SMILES | function of T-cells after in vitro stimulation
Nc1cccc2c1CN(C1CCC(=O)NC1=O)C2=O (centres unmarked) [Lenalidomide] | a number of improvements in the function of the T-cells
Nc1cccc2c1C(=O)N(C1CCC(=O)NC1=O)C2=O (centres unmarked) [pomalidomide] | a number of improvements in the function of the T-cells
